Structures are written as SMILES.

The record followed here is ChEMBL document CHEMBL1146718, “Discovery of a potent, selective and orally active canine COX-2 inhibitor, 2-(3-difluoromethyl-5-phenyl-pyrazol-1-yl)-5-methanesulfonyl-pyridine” (Bioorg Med Chem Lett, 2004).

The nature of data set [1]: in vivo. The settings on record: dog, plasma, po, 5 mg/kg.
Data set [2] can be described thus: in vivo. The settings on record: dog, po, 5 mg/kg.
A short description of data set [3]: in vivo. The following applies: dog, po, 5 mg/kg. This is another data set of the same source.
Data set [4] is described as follows: in vivo. The settings on record: dog, po, 5 mg/kg. This is another data set of the same source.
The nature of data set [5]: in vivo. The settings on record: dog, plasma, po, 5 mg/kg. The source holds these as a separate data set.

With `CS(=O)(=O)c1ccc(-n2nc(C(F)F)cc2-c2ccc(F)cc2)nc1`, the exposure (AUC) in “in vivo [1]” came to 7650 ng·h/mL. In the data set “in vivo [2]”, the half-life was 17 h. The time of peak concentration (Tmax) in “in vivo [3]” is 1.3 h. Further, in “in vivo [4]”, the concentration at 24 h amounted to 329 ng/mL. In addition, the peak concentration (Cmax) in “in vivo [5]” was determined as 509 ng/mL.

Regarding `CS(=O)(=O)c1ccc(-n2nc(C(F)F)cc2-c2ccccc2)nc1`, the half-life in the data set “in vivo [2]” is 26 h. Further, the time of peak concentration (Tmax) in “in vivo [3]” turned out to be 1.5 h. Besides, the highest level in the data set “in vivo [5]” (Cmax) was 1090 ng/mL.

For the compound `CS(=O)(=O)c1ccc(-n2nc(C(F)(F)F)cc2-c2ccccc2)nc1`, in the data set “in vivo [1]”, the exposure (AUC) was determined as 4280 ng·h/mL. Also, the half-life in the data set “in vivo [2]” was 13.1 h. For the same compound, the time of peak concentration (Tmax) in the data set “in vivo [3]” was 0.8 h. In the data set “in vivo [4]”, this compound displayed a concentration at 24 h of 77 ng/mL. In “in vivo [5]”, this compound gave a Cmax of 611 ng/mL.

`CS(=O)(=O)c1ccc(-n2nc(C(F)(F)F)cc2-c2ccc(F)cc2)nc1` registered an AUC in “in vivo [1]” of 4820 ng·h/mL. Besides, in the data set “in vivo [2]”, the half-life is 17.5 h. The Tmax in the data set “in vivo [3]” was found to be 0.8 h. Further, the concentration at 24 h in the data set “in vivo [4]” was 134 ng/mL. Besides, in “in vivo [5]”, the Cmax was 540 ng/mL.

For the compound `Cc1ccc(-c2cc(C(F)(F)F)nn2-c2ccc(S(N)(=O)=O)cc2)cc1` [CELECOXIB], the exposure (AUC) in “in vivo [1]” turned out to be 3100 ng·h/mL. Moreover, in “in vivo [2]”, the half-life is 3.3 h. In the data set “in vivo [5]”, this compound returned a Cmax of 540 ng/mL.

One may read the AUC as concentration integrated over time. Low values mean less exposure, high ones more exposure. The half-life is the time needed for the level to fall by half in the phase considered. The low end stands for rapid decline, the high end for slow decline. A word on the Tmax: it is the time at which the peak concentration occurs. For orientation: Cmax means the peak of the concentration-time curve.
